Values quoted from earlier work in US20060014804A1, “Cyanoguanidine prodrugs” (Leo Pharma A/S, priority 2002, published 2006).

Experiments:
[1] = tested on: normal human endothelial cells
[2] = tested on: human tumour cells; details: compared with daunorubicin and paclitaxel
[3] = tested on: human lung and breast cancer cell lines
[4] = tested on: human lung cancer tumour xenograft; details: nude mice
[5] = tested on: human tumour cells; details: nude mice transplanted with human tumour cells, also paclitaxel-resistant tumour cells

N#CNC(=Nc1ccncc1)NCCCCCCOc1ccc(Cl)cc1 [N-(6-(4-chlorophenoxy)hexyl)-N′-cyano-N″-(4-pyridyl)guanidine]
antiproliferative activity on normal human endothelial cells [1]: considerably less antiproliferative activity | potency in vitro [2]: comparable to that of the reference cytostatic agents daunorubicin and paclitaxel | antiproliferative activity in vitro [3]: high antiproliferative activity in vitro | antitumour activity in the nude mouse model [4]: potent antitumour activity | antitumour activity in vivo [5]: substantial antitumour activity
